Source: ChEMBL document CHEMBL3832042, “DailyMed|setid=5d4f90d4-e535-4681-a863-3d774a2064e6 | ANASTROZOLE - anastrozole tablet|PD-Rx Pharmaceuticals, Inc”
Where “and” joins values, the source holds several entries; their conditions need not be identical. Equal entries are not always repeated.

What was measured:
[1] = tested on: Homo sapiens; assay: Evaluation of pharmacokinetic parameters for Anastrazole following multiple oral administration of Anastrazole to Caucasian and to Japanese female subjects.; format: ADME, organism-based; settings: in vivo, dose 1 mg, dosed compound id 24, dosed compound name ANASTROZOLE, gender female, regimen every 24h, study dosing duration 16 days, tissue Plasma
[2] = Evaluation of pharmacokinetic parameters for Anastrazole following single oral administration of Anastrazole to subjects under fatsed and fed conditions.; settings: human, in vivo

CC(C)(C#N)c1cc(Cn2cncn2)cc(C(C)(C)C#N)c1 [ANASTROZOLE]
Cmin ss [1]: 30.4 ng/mL and 25.7 ng/mL
half-life [2]: 50 h
